# Marks after values point to notes of the source that are not given here.
# System: hyperlipidemia induced by the Triton WR 1339 in rats
# Assay: Hypolipidemic activity: inhibition of hyperlipidemia induced by Triton WR 1339 in rats
# Type: in vivo, rat
# Conditions: male Fischer rats, Triton WR 1339 200 mg/Kg i.p., dose 56 μmol/kg ip, plasma after 24 hours
# Experimental: The hypocholesterolemic and hypolipidemic activity of the synthesised compounds was performed by the inhibition of the hyperlipidemia induced by the Triton WR 1339 in rats. Triton WR 1339 as an intraperitoneal (i.p.) injection acts due to induction of HMG-CoA reductase. […] After 24 hours, blood was taken from the celiac aorta and collected to heparinised tubes.
smiles,measurement,value
CC(C)(Sc1cc(C(C)(C)C)c(O)c(C(C)(C)C)c1)Sc1cc(C(C)(C)C)c(O)c(C(C)(C)C)c1 [Probucol],"Percent decrease compared to controls, LDL (plasma Low Density Lipoprotein)",18^NS %
same,"Percent decrease compared to controls, TC (plasma Total Cholesterol)",18* %
same,"Percent decrease compared to controls, TG (plasma Triglyceride)",11^NS %

# From US6693192B1, “Hypolipidemic and antioxidant morpholine derivatives” (Elpen S.A., priority 1999, dated 2004)
